Reference: PubChem BioAssay AID2060484 (Molecular Pharmacology Branch, DTP, NCI, 2025)

System: SUM149PT spheroids with HUVEC/MSC, viability
Experiment: Anticancer human tumor SUM149PT cell line growth inhibition [GQUAD];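 note: spheroids exposed to drugs for seven days before readout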;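 for viability, T/C: percent viability relative to DMSO vehicle control taken as 100%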
Details: for IC50: curve of first compound; for viability, T/C: stronger effect = lower value
Method in brief: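 Viability of tumor cells grown as complex spheroids with endothelial and stromal cells, exposed to drug combinations. Top concentration at or near clinical Cmax (else 10 microM), diluted in half-log increments.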

[1] = second compound 0.0316 µM, first compound 0.0316 µM
[2] = second compound 0.0316 µM, first compound 0.1 µM
[3] = second compound 0.0316 µM, first compound 0.316 µM
[4] = second compound 0.0316 µM, first compound 1 µM
[5] = second compound 0.0316 µM, first compound 3.16 µM
[6] = second compound 0.0316 µM, first compound 10 µM
[7] = second compound 0.1 µM, first compound 0.0316 µM
[8] = second compound 0.1 µM, first compound 0.1 µM
[9] = second compound 0.1 µM, first compound 0.316 µM
[10] = second compound 0.1 µM, first compound 1 µM
[11] = second compound 0.1 µM, first compound 3.16 µM
[12] = second compound 0.1 µM, first compound 10 µM
[13] = second compound 0.316 µM, first compound 0.0316 µM
[14] = second compound 0.316 µM, first compound 0.1 µM
[15] = second compound 0.316 µM, first compound 0.316 µM
[16] = second compound 0.316 µM, first compound 1 µM
[17] = second compound 0.316 µM, first compound 3.16 µM
[18] = second compound 0.316 µM, first compound 10 µM
[19] = second compound 1 µM, first compound 0.0316 µM
[20] = second compound 1 µM, first compound 0.1 µM
[21] = second compound 1 µM, first compound 0.316 µM
[22] = second compound 1 µM, first compound 1 µM
[23] = second compound 1 µM, first compound 3.16 µM
[24] = second compound 1 µM, first compound 10 µM
[25] = second compound 3.16 µM, first compound 0.0316 µM
[26] = second compound 3.16 µM, first compound 0.1 µM
[27] = second compound 3.16 µM, first compound 0.316 µM
[28] = second compound 3.16 µM, first compound 1 µM
[29] = second compound 3.16 µM, first compound 3.16 µM
[30] = second compound 3.16 µM, first compound 10 µM
[31] = second compound 10 µM, first compound 0.0316 µM
[32] = second compound 10 µM, first compound 0.1 µM
[33] = second compound 10 µM, first compound 0.316 µM
[34] = second compound 10 µM, first compound 1 µM
[35] = second compound 10 µM, first compound 3.16 µM
[36] = second compound 10 µM, first compound 10 µM

CC1COCCN1c1cc(-c2ccnn2C)c2ccnc(-c3ccn[nH]3)c2n1 (centres undefined) + Cc1cnc(CNC(=O)c2c(=O)c3ccc(N4CCCN(C)CC4)nc3n3c2sc2ccccc23)cn1
IC50 (second compound 0.0316 µM): < 31.6 nM
IC50 (second compound 0.1 µM): < 31.6 nM
IC50 (second compound 0.316 µM): < 31.6 nM
IC50 (second compound 1 µM): < 31.6 nM
IC50 (second compound 3.16 µM): < 31.6 nM
IC50 (second compound 10 µM): < 31.6 nM
viability, T/C [1]: 14.7%
viability, T/C [2]: 12.5%
viability, T/C [3]: 18.1%
viability, T/C [4]: 18.2%
viability, T/C [5]: 20.6%
viability, T/C [6]: 19.2%
viability, T/C [7]: 17.1%
viability, T/C [8]: 19.6%
viability, T/C [9]: 18.7%
viability, T/C [10]: 20.3%
viability, T/C [11]: 20.3%
viability, T/C [12]: 20.4%
viability, T/C [13]: 21.1%
viability, T/C [14]: 20.5%
viability, T/C [15]: 24.3%
viability, T/C [16]: 20.3%
viability, T/C [17]: 21.9%
viability, T/C [18]: 18.4%
viability, T/C [19]: 21.4%
viability, T/C [20]: 23.1%
viability, T/C [21]: 26.4%
viability, T/C [22]: 21.5%
viability, T/C [23]: 20.7%
viability, T/C [24]: 17.5%
viability, T/C [25]: 25.9%
viability, T/C [26]: 23.6%
viability, T/C [27]: 24.2%
viability, T/C [28]: 20.8%
viability, T/C [29]: 18.8%
viability, T/C [30]: 15.9%
viability, T/C [31]: 0.11%
viability, T/C [32]: 0.15%
viability, T/C [33]: 0.93%
viability, T/C [34]: 1.21%
viability, T/C [35]: 1.74%
viability, T/C [36]: 0.18%

O=C(NO)c1cnc(N2CCN(S(=O)(=O)c3ccc4ccccc4c3)CC2)nc1 + CN(C)c1ccc(Nc2c3ccc(NC(=O)CCN4CCCC4)cc3nc3cc(NC(=O)CCN4CCCC4)ccc23)cc1
IC50 (second compound 0.0316 µM): 325 nM
IC50 (second compound 0.1 µM): 326 nM
IC50 (second compound 0.316 µM): 322 nM
IC50 (second compound 1 µM): 314 nM
IC50 (second compound 3.16 µM): 335 nM
IC50 (second compound 10 µM): 261 nM
viability, T/C [1]: 108%
viability, T/C [2]: 89.4%
viability, T/C [3]: 54.2%
viability, T/C [4]: 0.96%
viability, T/C [5]: 1.31%
viability, T/C [6]: 3.07%
viability, T/C [7]: 116%
viability, T/C [8]: 98.7%
viability, T/C [9]: 54%
viability, T/C [10]: 0.82%
viability, T/C [11]: 1.32%
viability, T/C [12]: 2.31%
viability, T/C [13]: 104%
viability, T/C [14]: 98.1%
viability, T/C [15]: 51%
viability, T/C [16]: 0.47%
viability, T/C [17]: 1.57%
viability, T/C [18]: 1.8%
viability, T/C [19]: 93%
viability, T/C [20]: 96%
viability, T/C [21]: 49.7%
viability, T/C [22]: 0.55%
viability, T/C [23]: 2.23%
viability, T/C [24]: 1.4%
viability, T/C [25]: 86.6%
viability, T/C [26]: 90.9%
viability, T/C [27]: 52.6%
viability, T/C [28]: 0.33%
viability, T/C [29]: 0.17%
viability, T/C [30]: 1.59%
viability, T/C [31]: 87.6%
viability, T/C [32]: 70.2%
viability, T/C [33]: 47.4%
viability, T/C [34]: 0.97%
viability, T/C [35]: 2.45%
viability, T/C [36]: 1.01%
